Tests used:
[1] = in vivo; cited from earlier work
[2] = test system: nonalcoholic steatohepatitis (NASH); conditions: compared to placebo; cited from earlier work
[3] = test system: EoE-derived primary esophageal fibroblasts; experiment: Western immunoblot of pro-fibrotic protein expression in EoE-derived esophageal fibroblasts; type: cell-based, human
Protocol: Reagents, human esophageal tissues, and primary human esophageal fibroblast isolation TGF-β1 (5 ng/mL; R&D Systems, Minneapolis, MN), rosiglitazone (20 μM; Abcam, Boston, MA), pioglitazone (20 μM; Sigma-Aldrich, St. Louis, MO), budesonide (0.1 μM; St. Louis, MO), and IL-4 (10 ng/mL; R&D Systems, Minneapolis, MN) were used in cell culture experiments. […] Active EoE was defined as greater than or equal to 15 eosinophils per hpf. Human organ transplant donor esophagi served as normal controls and were provided by the National Disease Research Interchange and the Arkansas Regional Organ Recovery Agency Control. […]
Adherent cells were washed with ice-cold phosphate-buffered saline containing 1 mM sodium orthovanadate (Na3VO4) and lysed in ice-cold RIPA lysis buffer freshly prepared and supplemented with 1 mM Na3VO4, complete protease inhibitor cocktail, and 2 mM phenylmethylsulfonyl fluoride. […] Equivalent amounts of total proteins were loaded into each well and electrophoresed on NuPAGE 4-12% Bis-Tris gels (Life Technologies, Grand Island, NY), transferred to polyvinylidene difluoride membranes, blocked with 5% bovine serum albumin, incubated with primary antibodies overnight (1:1,000) at 4° C., detected using species-appropriate horseradish peroxidase-conjugated secondary antibodies, and quantified as previously described (Rawson et al., J. Allergy Clin. Immunol., 138:791-800, 2016).

[4] = test system: normal esophageal fibroblasts; experiment: Western immunoblot of pro-fibrotic protein expression in normal esophageal fibroblasts; type: cell-based, human; conditions: 20 μM, N=3
Protocol: Cell culture and stimulation.
Western immunoblot analysis. Adherent cells were washed with ice-cold phosphate-buffered saline containing 1 mM sodium orthovanadate (Na3VO4) and lysed in ice-cold RIPA lysis buffer freshly prepared and supplemented with 1 mM Na3VO4, complete protease inhibitor cocktail, and 2 mM phenylmethylsulfonyl fluoride. Whole cell lysates were centrifuged at 14,000 g for 15 minutes at 4° C.

[5] = test system: EoE-derived primary esophageal fibroblasts; experiment: qPCR of pro-fibrotic gene expression in EoE-derived esophageal fibroblasts stimulated with TGF-β1; conditions: at the concentrations used, up to 20 μM
Protocol: Reagents, human esophageal tissues, and primary human esophageal fibroblast isolation TGF-β1 (5 ng/mL; R&D Systems, Minneapolis, MN), rosiglitazone (20 μM; Abcam, Boston, MA), pioglitazone (20 μM; Sigma-Aldrich, St. Louis, MO), budesonide (0.1 μM; St. Louis, MO), and IL-4 (10 ng/mL; R&D Systems, Minneapolis, MN) were used in cell culture experiments.
Cell culture and stimulation. Human esophageal fibroblast cells were matched as closely as possible for sex, race, and passage. At sub-confluence, cells were serum starved overnight and treated with a TZD, budesonide, a combination, or vehicle for 2-3 hours followed by incubation with TGF-β1 or vehicle.
Preparation of total RNA and cDNA and quantitative PCR. Total RNA from fibroblast cultures was extracted using RNA STAT-60 (Tel-Test, Inc., Friendswood, TX) protocol, and oligo(dT)-primed cDNA was synthesized as previously described using the Qiagen RT-PCR kit and manufacturer's instructions. Quantitative real-time PCR (qPCR) primers are listed in Table 3; qPCR was carried out as previously described using the appropriate gene-specific primers, and relative gene expression was calculated using the method, with glyceraldehyde 3-phosphate dehydrogenase (gapdh) as the housekeeping gene (Rawson et al., J. Allergy Clin. Immunol., 138:791-800, 2016).

Row | Compound | cardiac effect [1] | drug-related adverse events [2] | tolerability [2] | basal protein expression of α-sma ([3]; EoE fibroblasts, 20 μM) | TGF-β1-induced protein expression of collagen-1α1 [4] | TGF-β1-induced protein expression of α-sma [4] | toxicity (housekeeper gene expression, responses in normal fibroblasts) [5] | TGFβ1-induced protein expression of collagen-1α1 ([3]; EoE fibroblasts from 2 patients, budesonide 0.1 μM)
1 | CCc1ccc(CCOc2ccc(CC3SC(=O)NC3=O)cc2)nc1 (stereo not drawn) [pioglitazone] | cardioprotective effect | no major drug-related adverse events | well tolerated | – | – | – | – | –
2 | CN(CCOc1ccc(CC2SC(=O)NC2=O)cc1)c1ccccn1 (stereo not drawn) [rosiglitazone] | myocardial infarction risk was subsequently disproven | – | – | did not inhibit | did not inhibit | did not inhibit | not due to toxicity | –
3 | CCCC1O[C@@H]2C[C@H]3[C@@H]4CCC5=CC(=O)C=C[C@]5(C)[C@H]4[C@@H](O)C[C@]3(C)[C@]2(C(=O)CO)O1 (stereo partly drawn) [budesonide, 16,17-(butylidenebis(oxy))-11,21-dihydroxy-, (11-β,16-α)-pregna-1,4-diene-3,20-dione] | – | – | – | – | – | – | – | no effects

Source: US12268777B2, “Compositions and methods for treating eosinophilic disorders” (The Regents of the University of California, priority 2019, dated 2025)
